Experimental data: PubChem BioAssay AID1259411 (Chemical Carcinogenesis Research Information System (CCRIS), 2018)
Active and inactive are the calls of the source. How the calls were made is not given here.

System: rodent carcinogenicity bioassays, tumor incidence
Test: CCRIS carcinogenicity studies
Procedure, shortened: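 NCI-built, expert-reviewed records of carcinogenicity and related test outcomes (mutagenicity, tumor promotion/inhibition) compiled from published and report sources, historical span 1985-2011, not updated.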

Compound: CSC(=O)c1cccc2nnsc12
- carcinogen call (Species: Mouse, Strain/Sex: Tif:MAGf (SPF) (NIH x MAG hybrid)/Female, Route: Oral (diet), Dose: 0, 10, 100, 2000, 6000 ppm (0; 1.14; 10.8; 234; 696 mg/kg/day) for 18 mo, Dose: 0, 10, 100, 2000, 6000 ppm (0; 1.14; 10.8; 234; 696 mg/kg/day) for 18 mo): inactive; negative
- carcinogen call (Species: Mouse, Strain/Sex: Tif:MAGf (SPF) (NIH x MAG hybrid)/Male, Route: Oral, Dose: 0, 10, 100, 2000, 6000 ppm (0; 1.14; 11.1; 237; 698 mg/kg/day) in feed for 18 mo, Dose: 0, 10, 100, 2000, 6000 ppm (0; 1.14; 11.1; 237; 698 mg/kg/day) in feed for 18 mo): inactive; negative
- carcinogen call (Species: Rat, Strain/Sex: Tif:Ralf (SPF) (Rll/1 x Rll/2 hybrid)/Female, Route: Oral, Dose: 0, 20, 200, 2500, 7500 ppm (0; 0.90; 9.08; 111; 388 mg/kg/day) in feed for 2 yr, Dose: 0, 20, 200, 2500, 7500 ppm (0; 0.90; 9.08; 111; 388 mg/kg/day) in feed for 2 yr): inactive; negative
- carcinogen call (Species: Rat, Strain/Sex: Tif:Ralf (SPF) (Rll/1 x Rll/2 hybrid)/Male, Route: Oral, Dose: 0, 20, 200, 2500, 7500 ppm (0; 0.77; 7.77; 96.9; 312 mg/kg/day) in feed for 2 years, Dose: 0, 20, 200, 2500, 7500 ppm (0; 0.77; 7.77; 96.9; 312 mg/kg/day) in feed for 2 years, Tumor Site: Type of Lesion: Small intestine: Mucinous carcinoma (1/60; 1/59; 2/59 at three highest doses)): active; positive; dpr reviewer notes that only 1 case of mucinous carcinoma has been see

Compound: O=C(O)Nc1ccc(-c2ccccc2)cc1
- carcinogen call (Species: RAT, Strain/Sex: STRAIN-CD/FEMALE, Route: INTRAPERITONEAL, Dose: 0, 100 UMOL/KG BW 2/WK FOR 6 WK (STUDY DURATION: 62 WK)): inactive; negative

Compound: O=CNc1nc(-c2ccc([N+](=O)[O-])o2)cs1
- carcinogen call (Species: DOG, Route: ORAL, Tumor Site: Type of Lesion: URINARY BLADDER, GALL BLADDER): active; positive
- carcinogen call (Species: MOUSE, Route: ORAL, Tumor Site: Type of Lesion: URINARY BLADDER): active; positive
- carcinogen call (Species: MOUSE, Strain/Sex: CD-1/FEMALE, Route: ORAL, Dose: 0, 0.1% IN DIET FOR 36 WK (STUDY DURATION: 81 WK), Tumor Site: Type of Lesion: BLADDER: TRANSITIONAL CELL CARCINOMA, SPINDLE CELL TUMOR, SQUAMOUS CELL CARCINOMA): active; positive
- carcinogen call (Species: MOUSE, Strain/Sex: CD-1/MALE, Route: ORAL, Dose: 0, 0.1% IN DIET FOR 40 WK (STUDY DURATION: 70 WK), Tumor Site: Type of Lesion: BLADDER: TRANSITIONAL CELL CARCINOMA, SPINDLE CELL TUMOR, SQUAMOUS CELL CARCINOMA): active; positive
- carcinogen call (Species: RAT, Route: ORAL, Tumor Site: Type of Lesion: KIDNEY, MAMMARY GLAND): active; positive
- carcinogen call (Species: RAT, Strain/Sex: F344/MALE, Route: ORAL, Dose: 0.001-0.2% IN DIET FOR 30 WK, Tumor Site: Type of Lesion: URINARY BLADDER: CARCINOMA): active; positive
- carcinogen call (Species: RAT, Strain/Sex: SPRAGUE-DAWLEY/FEMALE, Route: ORAL, Dose: 0, 0.188% IN DIET FOR 20 WK FOLLOWED BY CONTROL DIET FOR 20 WK (STUDY DURATION: 40 WK), Tumor Site: Type of Lesion: BLADDER: TRANSITIONAL CELL CARCINOMA): active; positive
- carcinogen call (Species: RAT, Strain/Sex: SPRAGUE-DAWLEY/FEMALE, Route: ORAL, Dose: 0.188% IN DIET FOR 20 WK THEN BASAL DIET FOR 20 WK, Tumor Site: Type of Lesion: URINARY BLADDER: TRANSITIONAL CELL CARCINOMA): active; positive

Compound: [O]=[Co]
- carcinogen call (Species: RAT, Strain/Sex: SPRAGUE-DAWLEY/FEMALE, Route: INTRATRACHEAL, Dose: 0, 2, 10 MG/KG EVERY 14 D FOR TOTAL DOSES OF 0, 78, 390 MG/KG (STUDY DURATION: 2 YR), Dose: 0, 2, 10 MG/KG EVERY 14 D FOR TOTAL DOSES OF 0, 78, 390 MG/KG (STUDY DURATION: 2 YR)): inactive; negative
- carcinogen call (Species: RAT, Strain/Sex: SPRAGUE-DAWLEY/MALE,FEMALE, Route: INTRAPERITONEAL, Dose: 0, 200 MG/KG EVERY 2 MO FOR TOTAL DOSES OF 0, 600 MG/KG, Dose: 0, 200 MG/KG EVERY 2 MO FOR TOTAL DOSES OF 0, 600 MG/KG, Tumor Site: Type of Lesion: PERITONEUM: TUMORS): active; positive
- carcinogen call (Species: RAT, Strain/Sex: SPRAGUE-DAWLEY/MALE, Route: INTRATRACHEAL, Dose: 0, 2, 10 MG/KG EVERY 14 D FOR TOTAL DOSES OF 0, 78, 390 MG/KG (STUDY DURATION: 2 YR), Dose: 0, 2, 10 MG/KG EVERY 14 D FOR TOTAL DOSES OF 0, 78, 390 MG/KG (STUDY DURATION: 2 YR), Tumor Site: Type of Lesion: LUNG: TUMOR): active; positive
- carcinogen call (Species: RAT, Strain/Sex: SPRAGUE-DAWLEY/MALE, Route: SUBCUTANEOUS, Dose: 0, 2 MG/KG 5/WK FOR TOTAL DOSES OF 0, 1000 MG/KG (STUDY DURATION: 2 YR), Dose: 0, 2 MG/KG 5/WK FOR TOTAL DOSES OF 0, 1000 MG/KG (STUDY DURATION: 2 YR), Tumor Site: Type of Lesion: SUBCUTANEOUS TISSUE: TUMORS): active; positive
- carcinogen call (Species: RAT, Strain/Sex: SPRAGUE-DAWLEY/MALE, Route: SUBCUTANEOUS, Dose: 0, 10 MG/KG 1/WK FOR TOTAL DOSES OF 0, 1000 MG/KG (STUDY DURATION: 2 YR), Dose: 0, 10 MG/KG 1/WK FOR TOTAL DOSES OF 0, 1000 MG/KG (STUDY DURATION: 2 YR), Tumor Site: Type of Lesion: SUBCUTANEOUS TISSUE: TUMORS): active; positive

Compound: Nc1cc(Cl)ccc1O
- carcinogen call (Species: Rat, Strain/Sex: F344/DuCrlCrlj / Female, Route: Oral, Dose: 0, 1280, 3200, 8000 ppm in diet for 2 yr study duration, Dose: 0, 1280, 3200, 8000 ppm in diet for 2 yr study duration, Tumor Site: Type of Lesion: Forestomach: squamous cell papilloma/carcinoma): active; positive
- carcinogen call (Species: Rat, Strain/Sex: F344/DuCrlCrlj / Male, Route: Oral, Dose: 0, 1280, 3200, 8000 ppm in diet for 2 yr study duration, Dose: 0, 1280, 3200, 8000 ppm in diet for 2 yr study duration, Tumor Site: Type of Lesion: Forestomach: squamous cell papilloma/carcinoma. Urinary bladder: papilloma/carcinoma): active; positive

Compound: CN(C)c1ccc(C(c2ccccc2)c2ccc(N(C)C)cc2)cc1
- carcinogen call (Species: MOUSE, Strain/Sex: B6C3F1/FEMALE, Route: ORAL (DIET), Dose: 0, 91, 204, 408 PPM IN DIET FOR 2 YRS, Dose: 0, 91, 204, 408 PPM IN DIET FOR 2 YRS, Tumor Site: Type of Lesion: LIVER: HEPATOCELLULAR ADENOMA OR CARCINOMA): active; positive; incidence of tumors was statistically significant
- carcinogen call (Species: RAT, Strain/Sex: F344/N/FEMALE, Route: DIET, Dose: 0, 91, 272, 543 PPM IN DIET FOR 2 YRS, Dose: 0, 91, 272, 543 PPM IN DIET FOR 2 YRS, Tumor Site: Type of Lesion: LIVER: HEPATOCELLULAR ADENOMA, THYROID: FOLLICULAR CELL ADENOMA OR CARCINOMA): equivocal; none of the tumor incidences reached statistical significance; for th
- carcinogen call (Species: RAT, Strain/Sex: F344/N/MALE, Route: ORAL (DIET), Dose: 0, 91, 272, 543 PPM IN DIET FOR 2 YRS, Dose: 0, 91, 272, 543 PPM IN DIET FOR 2 YRS, Tumor Site: Type of Lesion: TESTIS: INTERSTITIAL CELL ADENOMA, THYROID: FOLLICULAR CELL ADENOMA OR CARCINOMA): equivocal; thyroid tumors did not reach statistical significance

Compound: CCOP(=S)(OCC)Oc1ccc2c(C)c(Cl)c(=O)oc2c1
- carcinogen call (Species: MOUSE, Strain/Sex: B6C3F1/FEMALE, Route: ORAL, Dose: 0, 10, 20 PPM IN DIET, Dose: 0, 10, 20 PPM IN DIET): inactive; negative
- carcinogen call (Species: MOUSE, Strain/Sex: B6C3F1/MALE, Route: ORAL, Dose: 0, 10, 20 PPM IN DIET, Dose: 0, 10, 20 PPM IN DIET): inactive; negative
- carcinogen call (Species: RAT, Strain/Sex: F344/FEMALE, Route: ORAL, Dose: 0, 10, 20 PPM IN DIET, Dose: 0, 10, 20 PPM IN DIET): inactive; negative
- carcinogen call (Species: RAT, Strain/Sex: F344/MALE, Route: ORAL, Dose: 0, 10, 20 PPM IN DIET, Dose: 0, 10, 20 PPM IN DIET): inactive; negative
- carcinogen call (Species: Rat, Strain/Sex: Wistar/Female (50/group), Route: Oral, Dose: 0 (1% peanut oil), 1, 5, 25 ppm in diet for 24 mo, test material purity 99.2%, Dose: 0 (1% peanut oil), 1, 5, 25 ppm in diet for 24 mo, test material purity 99.2%): inactive; negative. according to dpr evaluator; original data not presented. cholinesteras
- carcinogen call (Species: Rat, Strain/Sex: Wistar/Male (50/group), Route: Oral, Dose: 0 (1% peanut oil), 1, 5, 25 ppm in diet for 24 mo, test material purity 99.2%, Dose: 0 (1% peanut oil), 1, 5, 25 ppm in diet for 24 mo, test material purity 99.2%): inactive; negative. according to dpr evaluator; original data not presented. cholinesteras
